# Laboratory results published in patent US7846936B2, “Combinations for the treatment of diseases involving cell proliferation, migration or apoptosis of myeloma cells or angiogenesis” (Boehringer Ingelheim International GmbH, priority 2003, dated 2010).
# Key:
# [1] = system: SKOV-3 cells (human ovarian carcinoma); test: SKOV-3 xenograft combination experiment; format: in vivo, nude mice (NMRI nu/nu); details: SKOV-3 tumours in nude mice, 15 mg/kg daily per os, day 31
# Procedure: The following experiment was performed in order to investigate the effect of a combination therapy with suboptimal doses of an antagonist of at least one receptor selected from VEGFR 1 to 3, PDGFRα and β, FGFR1, 2 and 3, EGFR, HER2, IGF1R, HGFR or c-Kit, which is further an antagonist of a src tyrosine kinase family member, namely the di-chloride salt of (Z)-3-(1-(4-(N-((4-methyl-piperazin-1-yl)-methylcarbonyl)-N-methyl-amino)-phenylamino)-1-phenyl-methylene]-6-methoxycarbonyl-2-indolinone (compound referred to as C12(T)), which is the di-chloride salt of above exemplified compound (T), and a dual antagonist of the epidermal growth factor (EGF) receptor and of the human epidermal growth factor of type 2 (HE type 2) receptor, namely the compound 4-[(3-chloro-4-fluorophenyl)amino]-6-{[4-(N,N-dimethylamino)-1-oxo-2-buten-1-yl]amino}-7-((S)-tetrahydrofuran-3-yloxy)-quinazoline, (compound referred to as EGFR/HER2 inh., and described in WO 02/50043 as exemplified compound of Example 1(10)), on the reduction of tumour growth, in comparison to the mono-therapies at the same doses. […]
# Daily per os treatment was initially performed for 31 days. […] The calculated treated tumour to control tumour (T/C) ratio at this time point was 35% for the group treated with 15 mg/kg EGFR/HER2 inh., 32% for the group treated with 50 mg/kg C12(T), and 13% for the group treated with the combination. […]
# [2] = system: FaDu tumours (human squamous carcinoma cells); test: in vivo xenograft experiment, subcutaneous FaDu tumours; details: nude mice, 100 mg/kg orally twice weekly
# Procedure: By increasing the dose to 200 mg/kg orally twice weekly an even better anti-tumour effect is expected.
# [3] = biological target: Lyn (Homo sapiens, UniProt P07948); test: kinase inhibition panel (Table I); format: biochemical
# [4] = system: IL-6 secretion by BMSC cells; test: IL-6 secretion by bone marrow stromal cells (Table II); format: cell-based
# [5] = biological target: CDK2 (Homo sapiens, UniProt P24941); test: kinase inhibition panel (Table I); format: biochemical
# [6] = oral bioavailability; format: in vivo; details: mice
# [7] = system: IL-6 secretion in U-266 + BMSC co-cultures; test: IL-6 secretion in transwell and contact co-cultures of U-266 myeloma cells and BMSC cells (Table III); format: cell-based
# Source text: (§1) For comparison, the inhibition effect on BMSC mono-cultures (native) and, as control, the level of secretion of U266 mono-cultures, were also investigated.
# [8] = system: IL-6 secretion by BMSC cells; test: IL-6 secretion by bone marrow stromal cells (Table II); format: cell-based; remark: listed apart in the source
# Source text: For comparison, the inhibition effect with inhibition of anti-bFGF (+anti-bFGF), anti-VEGF (+anti-VEGF) and a combination of anti-bFGF and anti-VEGF (+anti-VEGF+anti-bFGF) were also investigated.
# [9] = system: cell lines with t(4;14); test: apoptosis on cell lines with t(4;14); format: cell-based; details: in vitro
# [10] = system: IL-6 secretion by BMSC mono-cultures; test: IL-6 secretion of BMSC mono-cultures (Table III); format: cell-based
# Source text: as §1
# [11] = system: t(14;16) MM1.s myeloma cells; test: apoptosis of myeloma cells; format: cell-based
# [12] = clinically tested, also in conjunction with chemotherapy; cited from earlier work
# Lyn, sequence (P07948 whole entry, species assumed): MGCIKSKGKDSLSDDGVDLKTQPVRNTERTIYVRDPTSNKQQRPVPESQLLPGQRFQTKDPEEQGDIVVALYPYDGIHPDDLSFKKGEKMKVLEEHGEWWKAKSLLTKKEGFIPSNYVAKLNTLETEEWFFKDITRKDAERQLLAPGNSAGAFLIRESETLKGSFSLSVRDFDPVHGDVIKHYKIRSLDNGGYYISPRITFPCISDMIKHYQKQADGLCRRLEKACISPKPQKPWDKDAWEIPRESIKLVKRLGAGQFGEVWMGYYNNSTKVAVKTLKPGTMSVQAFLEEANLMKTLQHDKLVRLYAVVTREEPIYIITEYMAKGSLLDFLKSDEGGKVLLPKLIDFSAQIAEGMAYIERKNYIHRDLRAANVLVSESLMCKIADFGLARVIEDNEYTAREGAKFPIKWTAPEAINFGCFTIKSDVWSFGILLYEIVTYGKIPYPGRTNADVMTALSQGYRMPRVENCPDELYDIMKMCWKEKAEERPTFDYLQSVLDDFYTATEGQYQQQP
compound,measurement,setting,value
"CN(C)CC=CC(=O)Nc1cc2c(Nc3ccc(F)c(Cl)c3)ncnc2cc1O[C@H]1CCOC1 [EGFR/HER2 inh., 4-[(3-chloro-4-fluorophenyl)amino]-6-{[4-(N,N-dimethylamino)-1-oxo-2-buten-1-yl]amino}-7-((S)-tetrahydrofuran-3-yloxy)-quinazoline]",treated tumour to control tumour (T/C) ratio,[1],35%
"CCS(=O)(=O)O.COC(=O)c1ccc2c(c1)NC(=O)/C2=C(\Nc1ccc(N(C)C(=O)CN2CCN(C)CC2)cc1)c1ccccc1 [MES(T), monoethanesulfonate salt of 3-Z-[1-(4-(N-((4-methyl-piperazin-1-yl)-methylcarbonyl)-N-methyl-amino)-anilino)-1-phenyl-methylene]-6-methoxycarbonyl-2-indolinone]",T/C (Tumour/Control) value,[2],31%
same,IC50,[3],195 nM
same,IL-6 secretion by BMSC cells,"[4]; +VEGF, MES(T) 10 nM",122.3
same,IL-6 secretion by BMSC cells,"[4]; +VEGF, MES(T) 50 nM",130.7
same,IL-6 secretion by BMSC cells,"[4]; +VEGF, MES(T) 125 nM",141.0
same,IL-6 secretion by BMSC cells,"[4]; +VEGF, MES(T) 250 nM",65.5
same,IL-6 secretion by BMSC cells,"[4]; +VEGF, MES(T) 500 nM",14.8
same,IL-6 secretion by BMSC cells,"[4]; +anti-VEGF + anti-bFGF, MES(T) 10 nM",68.1
same,IL-6 secretion by BMSC cells,"[4]; +anti-VEGF + anti-bFGF, MES(T) 50 nM",63.4
same,IL-6 secretion by BMSC cells,"[4]; +anti-VEGF + anti-bFGF, MES(T) 125 nM",86.1
same,IL-6 secretion by BMSC cells,"[4]; +anti-VEGF, MES(T) 10 nM",148.6
same,IL-6 secretion by BMSC cells,"[4]; +anti-VEGF, MES(T) 50 nM",155.2
same,IL-6 secretion by BMSC cells,"[4]; +anti-VEGF, MES(T) 125 nM",166.7
same,IL-6 secretion by BMSC cells,"[4]; +anti-VEGF, MES(T) 250 nM",89.4
same,IL-6 secretion by BMSC cells,"[4]; +anti-VEGF, MES(T) 500 nM",16.2
same,IL-6 secretion by BMSC cells,"[4]; +anti-bFGF, MES(T) 10 nM",68.9
same,IL-6 secretion by BMSC cells,"[4]; +anti-bFGF, MES(T) 500 nM",20.2
same,IL-6 secretion by BMSC cells,"[4]; +bFGF, MES(T) 10 nM",150.5
same,IL-6 secretion by BMSC cells,"[4]; +bFGF, MES(T) 50 nM",179.7
same,IL-6 secretion by BMSC cells,"[4]; +bFGF, MES(T) 125 nM",91.2
same,IL-6 secretion by BMSC cells,"[4]; +bFGF, MES(T) 250 nM",76.9
same,IL-6 secretion by BMSC cells,"[4]; +bFGF, MES(T) 500 nM",43.4
same,IL-6 secretion by BMSC cells,"[4]; native, MES(T) 10 nM",130.2
same,IL-6 secretion by BMSC cells,"[4]; native, MES(T) 50 nM",170.4
same,IL-6 secretion by BMSC cells,"[4]; native, MES(T) 125 nM",97.5
same,IL-6 secretion by BMSC cells,"[4]; native, MES(T) 250 nM",76.5
same,IL-6 secretion by BMSC cells,"[4]; native, MES(T) 500 nM",39.6
same,IC50,[5],> 10000 nM
same,oral bioavailability,[6],orally bioavailable
same,"IL-6 secretion, Contact U-266 + BMSC co-cultures",[7]; MES(T) 125 nM,259.6
same,"IL-6 secretion, Contact U-266 + BMSC co-cultures",[7]; MES(T) 250 nM,199.4
same,"IL-6 secretion, Contact U-266 + BMSC co-cultures",[7]; MES(T) 500 nM,114.7
same,effect on IL-6 secretion of BMSC cultures stimulated by myeloma cells,[7]; transwell and contact co-cultures,decrease to its basal (native) value the level of IL-6 secretion
same,"IL-6 secretion, Transwell U-266 + BMSC co-cultures",[7]; MES(T) 50 nM,354.5
same,"IL-6 secretion, Transwell U-266 + BMSC co-cultures",[7]; MES(T) 125 nM,297.6
same,"IL-6 secretion, Transwell U-266 + BMSC co-cultures",[7]; MES(T) 250 nM,231.1
same,"IL-6 secretion, Transwell U-266 + BMSC co-cultures",[7]; MES(T) 500 nM,123.9
same,IL-6 secretion by BMSC cells,"[8]; +anti-VEGF + anti-bFGF, MES(T) 250 nM",45.0
same,IL-6 secretion by BMSC cells,"[8]; +anti-VEGF + anti-bFGF, MES(T) 500 nM",13.5
same,IL-6 secretion by BMSC cells,"[8]; +anti-bFGF, MES(T) 50 nM",81.3
same,IL-6 secretion by BMSC cells,"[8]; +anti-bFGF, MES(T) 125 nM",42.4
same,IL-6 secretion by BMSC cells,"[8]; +anti-bFGF, MES(T) 250 nM",33.0
same,apoptosis on cell lines with t(4;14),[9],Direct induction of apoptosis
same,"IL-6 secretion, BMSC mono-cultures",[10]; MES(T) 50 nM,213.4
same,"IL-6 secretion, BMSC mono-cultures",[10]; MES(T) 125 nM,192.1
same,"IL-6 secretion, BMSC mono-cultures",[10]; MES(T) 250 nM,69.9
same,"IL-6 secretion, BMSC mono-cultures",[10]; MES(T) 500 nM,38.6
same,effect on dexamethasone-induced apoptosis,[11]; combined with dexamethasone,enhances the apoptosis induced by dexamethasone
same,apoptosis of myeloma cells,"[11]; t(14;16) MM1.s myeloma cells, MES(T) alone",pro-apoptotic effects
Cc1cc(C)c(/C=C2\C(=O)Nc3ccccc32)[nH]1 [SU5416],side effect in clinical testing,[12],thromboembolic events
